Measurements from patent US12389931B2, “Oyster peptide with effect of improving sexual function and preparation method thereof” (priority 2019, dated 2025).

Columns and labels:
[1] = test system: NO content in TM3 cells; test: NO content in TM3 cells (NO determination kit); type: cell-based, mouse; details: sildenafil 200 μg/mL, vs control group (p<0.05), FIG. 18
Procedure: 4. Detection of NO Content
TM3 cells were cultured with the oyster peptide culture solution for 24 h, the obtained culture solution was centrifuged, a supernatant was taken and mixed uniformly, and the content of NO was detected according to instructions of NO determination kit.
Operation procedure for detecting NO: (1) Reagent preparation: all reagents were taken out and equilibrated to room temperature for use. (2) 100 μM standard working solution: 5 μL of concentrated standard was added to 495 μL of reaction buffer and mixed well. […] After the incubation was over, the microplate was taken out, placed into an incubator at 37° C. and further incubated for 60 min, and then taken out and placed into a microplate reader for reading at 540 nm. (5) Quantitative calculation of total nitric oxide in samples:
NO is a small fat-soluble molecule with unstable chemical properties and is produced by a catalyzed reaction of nitric oxide synthase in a body, and it can cause the expansion of blood vessels in the body. […] The effect of the oyster peptide on the NO content in TM3 cells was detected according to the instructions of NO determination kit. […]

[2] = test system: dihydrotestosterone secretion in TM3 cells; test: Dihydrotestosterone secreted by TM3 cells (ELISA); type: cell-based, mouse; details: sildenafil 200 μg/mL, positive control in dihydrotestosterone test, FIG. 16
Procedure: 3. Dihydrotestosterone (DHT) Content
TM3 cells was cultured with the oyster peptide culture solution for 24 h, the obtained culture solution was centrifuged, a supernatant was taken and mixed uniformly, and the content of dihydrotestosterone was detected according to instructions of ELISA kit.
Operation procedure for detecting dihydrotestosterone: (1) Standards were added into standard wells at 50 μL/well. (2) 40 μL of sample diluent was added to sample wells and then 10 μL of the sample to be tested was added, and nothing was added to the blank wells. (3) The reaction wells were sealed with the plate-sealing film and incubated at 37° C. for 45 min. […] (10) A stop solution was added at 50 μL/well and mixed uniformly and then the OD450 value was measured.
Dihydrotestosterone is a steroid hormone secreted by testes and a main male hormone in the human body, is related to the development of male secondary sexual characteristics and plays an important role in maintaining normal sexual desire. In this test example, the oyster peptide culture solutions of Example 1 at different concentrations and the oyster peptide culture solutions of Examples 1-3 and Comparative Examples 1-4 at the same concentration were used to treat TM3 cells for 24 h, and then the supernatants of cells were collected, and the contents of dihydrotestosterone secreted by the cells were measured by the ELISA method. […]

SMILES: CCCc1nn(C)c2c(=O)[nH]c(-c3cc(S(=O)(=O)N4CCN(C)CC4)ccc3OCC)nc12 [sildenafil]
- NO content in TM3 cells [1]: increased significantly
- dihydrotestosterone secreted by TM3 cells [2]: significantly promoting
